Data: US8519149B2, “Tricyclic compounds as mPGES-1 inhibitors” (Glenmark Pharmaceuticals S.A., priority 2010, dated 2013)
pIC50: −log10 of the molar value.

Biological target: T1, Recombinant human mPGES-1 (Homo sapiens, UniProt O14684)
T1 sequence (O14684 1-152): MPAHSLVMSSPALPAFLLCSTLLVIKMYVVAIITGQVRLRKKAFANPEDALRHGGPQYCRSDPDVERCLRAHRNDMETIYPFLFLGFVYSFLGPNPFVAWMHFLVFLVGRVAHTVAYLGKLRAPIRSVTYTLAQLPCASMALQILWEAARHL
Assay: In-vitro mPGES-1 enzyme inhibition assay (PGE2 formation from PGH2, HTRF detection)
Format: biochemical
Conditions: for inhibition at 1 µM: 1 μM test compound, read-out: Percentage inhibition at 1 μM; for inhibition at 1 µM / inhibition at 10 µM: recombinant human mPGES-1 microsomal fraction; for inhibition at 10 µM: 10 μM test compound, read-out: Percentage inhibition at 10 μM; for pIC50: class symbols, selected examples
Excerpt: In-Vitro Protocol for Screening of mPGES-1 Inhibitors: mPGES-1 (microsomal prostaglandin E synthase-1) is a microsomal enzyme that converts endoperoxide substrate PGH2 (prostaglandin H2) to product PGE2 (prostaglandin E2) by isomerization in the presence of reduced glutathione (GSH). mPGES-1 inhibitors were screened by assessing their ability to inhibit formation of PGE2 from PGH2 in presence of mPGES-1 using anti-PGE2 antibody based detection method. […] Assay was set up using crude microsomal fractions at protein concentration of 40-60 μg/mL. […] Final concentration of DMSO in reaction was 0.5% (v/v). Negative controls comprised of all assay reagents except the enzyme. Positive controls comprised of enzyme reaction in the absence of any inhibitor. […] Reaction was stopped by addition of Stannous chloride (11 mg/ml) and PGE2 levels were measured ([…] et al. […] Inhibition of mPGES-1 enzyme activity was measured using percent of reaction occurring in the positive control. Concentration response curves were plotted using percent inhibition of maximum enzyme reaction. IC50 value was calculated from concentration response curve by nonlinear regression analysis using GraphPad PRISM software.

| SMILES | inhibition at 1 µM | inhibition at 10 µM | pIC50 |
| --- | --- | --- | --- |
| COCCn1c(Nc2c(Cl)cccc2Cl)nc2cc(C(=O)Nc3ccc(C(F)(F)F)cc3)c3c(c21)CC(C)(C)O3 [Example-99, 2-[(2,6-Dichlorophenyl)amino]-1-(2-methoxyethyl)-7,7-dimethyl-N-[4-(trifluoromethyl)phenyl]-7,8-dihydro-1H-furo[3,2-e]benzimidazole-5-carboxamide] | 95.3% | 99.7% | > 7.30 |
| Cc1nc2c(o1)c(C(=O)NCc1ccccc1C(F)(F)F)cc1nc(Nc3c(Cl)cccc3Cl)[nH]c12 [Example-188, 7-[(2,6-Dichlorophenyl)amino]-2-methyl-N-[2-(trifluoromethyl)benzyl]-8H-imidazo[4,5-e][1,3]benzoxazole-4-carboxamide] | 98.1% | 99.4% | 7.00 to 7.30 |
| CC1(C)Cc2c(c(C(=O)NCCN3CCOCC3)cc3nc(Nc4c(Cl)cccc4Cl)[nH]c23)O1 [Example-70, 2-[(2,6-Dichlorophenyl)amino]-7,7-dimethyl-N-[2-(morpholin-4-yl)ethyl]-7,8-dihydro-1H-furo[3,2-e]benzimidazole-5-carboxamide] | 69.1% | 88.2% | – |
| Cc1cccc(Cl)c1Nc1nc2cc(C(=O)Nc3ccc(C(F)(F)F)cc3)c3c(c2[nH]1)CC(C)(C)O3 [Example-108, 2-[(2-Chloro-6-methylphenyl)amino]-7,7-dimethyl-N-[4-(trifluoromethyl)phenyl]-7,8-dihydro-1H-furo[3,2-e]benzimidazole-5-carboxamide] | 93.9% | 96.3% | > 7.30 |
| Cn1c(Nc2c(Cl)cncc2Cl)nc2cc(C(=O)Nc3ccc(C(F)(F)F)cc3)c3c(c21)CC(C)(C)O3 [Example-215, 2-((3,5-dichloropyridin-4-yl)amino)-1,7,7-trimethyl-N-(4-(trifluoromethyl)phenyl)-7,8-dihydro-1H-benzofuro[4,5-d]imidazole-5-carboxamide] | 96.3% | 94.1% | – |

Results, then the compound that gave them:

| inhibition at 1 µM | inhibition at 10 µM | pIC50 | SMILES |
| --- | --- | --- | --- |
| 91.8% | 94.2% | < 7.00 | Cc1nc(NC(=O)c2cc3nc(Nc4c(F)cccc4Cl)[nH]c3c3c2OC(C)(C)C3)sc1C [Example-55, 2-[(2-Chloro-6-fluorophenyl)amino]-N-(4,5-dimethyl-1,3-thiazol-2-yl)-7,7-dimethyl-7,8-dihydro-1H-furo[3,2-e]benzimidazole-5-carboxamide] |
| 94.8% | 95% | > 7.30 | CC1(C)Cc2c(c(C(=O)Nc3ccccc3C(F)(F)F)cc3nc(Nc4c(Cl)cccc4Cl)[nH]c23)O1 [Example-75, 2-[(2,6-Dichlorophenyl)amino]-7,7-dimethyl-N-[2-(trifluoromethyl)phenyl]-7,8-dihydro-1H-furo[3,2-e]benzimidazole-5-carboxamide] |
| 100% | 100% | > 7.30 | CC(C)CCNC(=O)c1cc2nc(Nc3c(Cl)cccc3Cl)[nH]c2c2c1OC(C)(C)C2 [Example-46, 2-[(2,6-Dichlorophenyl)amino]-7,7-dimethyl-N-(3-methylbutyl)-7,8-dihydro-1H-furo[3,2-e]benzimidazole-5-carboxamide] |
| 100% | 98.7% | > 7.30 | CC1(C)Cc2c(c(C(=O)Nc3ccc(F)cc3C(F)(F)F)cc3nc(Nc4c(F)cccc4Cl)[nH]c23)O1 [Example-117, 2-[(2-Chloro-6-fluorophenyl)amino]-N-[4-fluoro-2-(trifluoromethyl)phenyl]-7,7-dimethyl-7,8-dihydro-1H-furo[3,2-e]benzimidazole-5-carboxamide] |
| 96.4% | 98.6% | > 7.30 | CC1(C)Cc2c(c(C(=O)Nc3cc(F)c(F)cc3F)cc3nc(Nc4c(Cl)cccc4Cl)[nH]c23)O1 [Example-141, 2-((2,6-Dichlorophenyl)amino)-7,7-dimethyl-N-(2,4,5-trifluorophenyl)-7,8-dihydro-1H-benzofuro[4,5-d]imidazole-5-carboxamide] |
